Test results reported in patent US20110250294A1, “COMBINATIONS OF PRESERVATIVE COMPOSITIONS FOR OPHTHALMIC FORMULATIONS” (ALLERGAN, INC., priority 2010, published 2011).

Tested on: S. aureus, P. aeruginosa, c. albicans, E. coli and/or A. niger
Assay: abbreviated preservative efficacy test against Ph Eur-A (EP-A) and Ph Eur-B (EP-B) criteria
Type: cell-based
Conditions: 20 ppm BAK alone in ophthalmic solution
Procedure: Each of these formulations is tested by performing an abbreviated preservative efficacy test using test organisms S. aureus, P. aeruginosa, c. albicans, E. coli and/or A. niger. The formulations are tested against United States Preservative Efficacy Test (USP), European Efficacy Test-A (EP-A) and European Efficacy Test-B (EP-B) criteria as indicated. Ten (10) ml of each formulation is challenged with approximately 10^5 cfu/ml of test organism. At appropriate time intervals, the amount of bacterial and fungal survivors are assayed using Dey Engley broth (DE) as the neutralizer media. DE, along with filtration, is sufficient at neutralizing the antimicrobial agents in the compositions. One (1) ml of each sample is diluted into nine (9) ml of DE. One (1) ml of the 1:10 dilution is filtered through a 0.45 µm filter and washed with 100 ml of a saline/polysorbate 80 solution. After washing the filtrate a second time with 100 ml of saline/polysorbate 80 solution, the filtrate is placed onto a TSA plate for bacteria and SAB for fungi.

benzalkonium chloride [BAK]
Ph Eur-B & A criteria (pass/fail): failed
